Laboratory results reported in patent US5567693A, “Method for inhibiting angiogenesis, proliferation of endothelial or tumor cells and tumor growth” (American Cyanamid Company, priority 1994, dated 1996).
Where a name gives a salt, the structure may show the parent alone.

Tests used:
[1] = tested on: Adult Bovine Aortic Endothelial (ABAE) cell line; test: Antiproliferative activity in ABAE cell line, PROTOCOL 1; format: cell-based; settings: Bos taurus, PROTOCOL 1, 48 hours
Experimental: The antiproliferative activity of the compounds of Formula I in an Adult Bovine Aortic Endothelial (ABAE) cell line and in Human Tumor cell lines is evaluated in three similar assays that measure growth inhibition. The assays are identified as follows: PROTOCOL 1,2,and 3 are described in greater detail hereinbelow. In general, according to PROTOCOLS 1 and 2, the target ABAE and/or Human Tumor cells are exposed to the compounds of Formula I for 48 hours. PROTOCOL 3 exposes ABAE cells to the compounds for 4 days. A detailed description of the protocols is as follows: PROTOCOL 1 Antiproliferative Activity in Human Tumor and Adult Bovine Aortic Endothelial Cell Lines (ABAE) The antiproliferative activity of the compounds of Formula I of the present invention is evaluated in a panel comprised of human tumor cell lines and an adult bovine aortic endothelial cell line (ABAE). The human tumor cell lines are from All cell lines are maintained in log phase in RPMI 1640 media, supplemented with 5% fetal calf serum, penicillin/streptomycin and 2 mM L-glutamine. Cultures are renewed after 20 passages with cells from a fresh stock of batch-frozen early passage cells. Cell lines are routinely checked for mycoplasma contamination (Genprobe). In a laminar flow hood, cells (1-5×10^4) are plated into 96-well microtiter plates in a volume of 0.1 ml/well with a bulk microtiter dispenser (Denley). […] At this concentration, dimethylsulfoxide has no effect on cell growth. Compounds are added using a Tomtec dispenser which simultaneously dispenses from one 96-well plate, containing the drug dilutions, to the plates containing the cells. After two days of continuous drug exposure, 50% cold trichloroacetic acid (TCA) is added to 10% final concentration to fix the cells, and after 60 minutes at 4° C., the TCA is aspirated and the plates are washed 5 times with deionized water using a microtiter plate washer. The number of cells on the plate are quantitated using a protein dye-binding assay (Monks et al., 1991). A 0.4% solution of the dye, sulforhodamine B, in […] is added to the plates, and the plates are washed 5 times with 1% […] using the automatic plate washed. The bound stain is solubilized with 0.1 ml of 10 mM Tris base. The optical densities are read from an automatic spectrophotometric plate reader (Dynatech) directly to a main frame computer (VAX 8600). Positive controls, that include standard chemotherapeutic drugs (i.e., Adriamycin, Cisplatin, etc.), are included in every experiment. Background optical density measurements (complete media-cells, and complete media+drug-cells) are automatically subtracted from the appropriate control and test wells. Mean values and standard errors are determined from duplicate wells. A measure is also made of the optical density at time when the drugs are added. The number of cells after treatment (P), as % of control, is calculated for every concentration of drug, as follows: [formula] wherein: T is optical density measurement for treated cells after 48 hours; C is optical density measurement for untreated cells after 48 hours; Co is optical density measurement for cells at the time of drug addition. IC50 of growth inhibition is calculated from the sets of P values using the RS-1 data package (BBN Software). Table 1 presents the results depicting the antiproliferative activity of the compounds of Formula I against an Adult Bovine Aortic Endothelial cell line (ABAE), as evaluated by PROTOCOL 1 and 2. The results are presented in terms of IC50 and are as follows.

[2] = tested on: A2780/DDP; test: Antiproliferative activity in human tumor cell lines: A2780/DDP (ovarian); format: cell-based; settings: PROTOCOL 1 and PROTOCOL 2, 48 hours
Experimental: The assays are identified as follows:
PROTOCOL 1,2,and 3 are described in greater detail hereinbelow. In general, according to PROTOCOLS 1 and 2, the target ABAE and/or Human Tumor cells are exposed to the compounds of Formula I for 48 hours. PROTOCOL 3 exposes ABAE cells to the compounds for 4 days. A detailed description of the protocols is as follows:
The antiproliferative activity of the compounds of Formula I of the present invention is evaluated in a panel comprised of human tumor cell lines and an adult bovine aortic endothelial cell line (ABAE). The human tumor cell lines are from
Cultures are renewed after 20 passages with cells from a fresh stock of batch-frozen early passage cells. Cell lines are routinely checked for mycoplasma contamination (Genprobe). In a laminar flow hood, cells (1-5×10^4) are plated into 96-well microtiter plates in a volume of 0.1 ml/well with a bulk microtiter dispenser (Denley). […] Compounds are added using a Tomtec dispenser which simultaneously dispenses from one 96-well plate, containing the drug dilutions, to the plates containing the cells. After two days of continuous drug exposure, 50% cold trichloroacetic acid (TCA) is added to 10% final concentration to fix the cells, and after 60 minutes at 4° C., the TCA is aspirated and the plates are washed 5 times with deionized water using a microtiter plate washer. […] A 0.4% solution of the dye, sulforhodamine B, in […] is added to the plates, and the plates are washed 5 times with 1% glacial acetic acid using the automatic plate washed. The bound stain is solubilized with 0.1 ml of 10 mM Tris base. The optical densities are read from an automatic spectrophotometric plate reader (Dynatech) directly to a main frame computer (VAX 8600).
Positive controls, that include standard chemotherapeutic drugs (i.e., Adriamycin, Cisplatin, etc.), are included in every experiment.
Background optical density measurements (complete media-cells, and complete media+drug-cells) are automatically subtracted from the appropriate control and test wells. Mean values and standard errors are determined from duplicate wells. A measure is also made of the optical density at time when the drugs are added. The number of cells after treatment (P), as % of control, is calculated for every concentration of drug, as follows: [formula] wherein: T is optical density measurement for treated cells after 48 hours;
C is optical density measurement for untreated cells after 48 hours;
Co is optical density measurement for cells at the time of drug addition.
IC50 of growth inhibition is calculated from the sets of P values using the RS-1 data package (BBN Software).
The antiproliferative activity of the compounds of Formula I is evaluated in a panel comprised of human tumor cell lines and an adult bovine aortic cell line (ABAE) as listed in PROTOCOL 1. This assay is a modification of PROTOCOL 1. The modifications include:
1) each concentration for each compound is tested in a single well;
2) compounds are tested at 20, 4, 0.8, 0.16 microgram/ml and additionally in some experiments at 100 and 0.32 microgram/ml;
3) samples are pipetted into a 96-well plate for each of the cell lines by a Beckman Biomek 1000 SL robot;
4) after fixing with TCA each well is washed with 0.35 ml distilled water twice, not five times;
5) after staining with sulforhodamine B each well is washed 3 times, not five times;
6) the growth inhibition (I) as % of control, is calculated using the RS-1 data package (BBN Software), for every concentration of drug, as follows: [formula] wherein: T is optical density measurement for treated cells after 48 hours;
7) IC50 of growth inhibition is determined graphically from dose response curves, as is known in the art.

| Compound | IC50 [1] [µg/mL] | IC50 [2] [µg/mL] |
| --- | --- | --- |
| CCCCNCC(=O)Nc1c(Cl)cc2c(c1O)C(=O)C1=C(O)[C@]3(O)C(=O)C(C(N)=O)=C(O)[C@@H](N(C)C)C3CC1C2 (stereo partly drawn) [Example 4, [4S-(4α, 12aα)]-9-[[(Butylamino)acetyl]amino]-8-chloro-4-(dimethylamino) -1,4,4a,5,5a,6,11,12a-octahydro-3,10,12,12a-tetrahydroxy-1,11-dioxo-2-naphthacenecarboxamide dihydrochloride] | 2.3 | 2.8 |
| CCCNCC(=O)Nc1c(Cl)cc2c(c1O)C(=O)C1=C(O)[C@]3(O)C(=O)C(C(N)=O)=C(O)[C@@H](N(C)C)C3CC1C2 (stereo partly drawn) [Example 5, [4S-(4α, 12aα)]-8-Chloro-4-(dimethylamino)-1,4,4a,5,5a, 6,11,12a-octahydro-3,10,12,12a-tetrahydroxy-1,11-dioxo-9-[[(propylamino)acetyl]amino]-2-naphthacenecarboxamide dihydrochloride] | 2 | 3 |
| CN(C)CC(=O)Nc1c(Cl)cc2c(c1O)C(=O)C1=C(O)[C@]3(O)C(=O)C(C(N)=O)=C(O)[C@@H](N(C)C)C3CC1C2 (stereo partly drawn) [Example 3, [4S-(45, 12aα)]-8-Chloro-4-(dimethylamino)-9[[(dimethylamino)acetyl]amino]-1,4,4a,5,5a,6,11,12a-octahydro-3,10,12,12a-tetrahydroxy-1,11-dioxo-2-naphthacenecarboxamide disulfate] | 2.2 | 2.5 |
| CN(C)[C@@H]1C(O)=C(C(N)=O)C(=O)[C@@]2(O)C(O)=C3C(=O)c4c(cc(Cl)c(NC(=O)CNCC5CC5)c4O)CC3CC12 (stereo partly drawn) [Example 8, [4S-(4α,12aα)]-8-Chloro-9-[[(cyclopropylmethylamino)-acetyl]amino]4-(dimethylamino)-1,4,4a,5,5a,6,11,12a-octahydro-3,10,12,12a-tetrahydroxy-1,11-dioxo-2-naphthacenecarboxamide dihydrochloride] | 2 | 2.5 |
| CNCC(=O)Nc1c(Cl)cc2c(c1O)C(=O)C1=C(O)[C@]3(O)C(=O)C(C(N)=O)=C(O)[C@@H](N(C)C)C3CC1C2 (stereo partly drawn) [Example 7, [4S-(4α, 12aα)]-8-Chloro-4-(dimethylamino)-1,4,4a,5,5a,6,11,12a-octahydro-3,10,12,12a-tetrahydroxy-1,11-dioxo-9-[[(methylamino)acetyl]amino]-2-naphthacenecarboxamide dihydrochloride] | 3.3 | 3.8 |
| CN(C)[C@@H]1C(O)=C(C(N)=O)C(=O)[C@@]2(O)C(O)=C3C(=O)c4c(cc(Cl)c(NC(=O)CN5CCCC5)c4O)CC3CC12 (stereo partly drawn) [Example 9, [7S-(7α,10aα)]-N-[9-(Aminocarbonyl)-3-chloro-7-(dimethylamino)-5,5a,6,6a,7,10,10a,12-octahydro-1,8,10a,11-tetrahydroxy-10,12-dioxo-2-naphthacenyl]-1-pyrrolidineacetamide dihydrochloride] | 2.5 | 1 |
| CN(C)c1c(Cl)cc(O)c2c1CC1CC3[C@H](N(C)C)C(O)=C(C(N)=O)C(=O)[C@@]3(O)C(O)=C1C2=O (stereo partly drawn) [Example 11, [4S-(4α,12aα)]-8-Chloro-4,7-bis(dimethylamino)-1,4,4a,5,5a,6,11,12a-octahydro-3,10,12,12a-tetrahydroxy-1,11-dioxo-2-naphthacenecarboxamide sulfate] | 3 | 3.85 |
| CN(C)[C@@H]1C(O)=C(C(N)=O)C(=O)[C@@]2(O)C(O)=C3C(=O)c4c(cc(Cl)c(NC(=O)CN5CCCCC5)c4O)CC3CC12 (stereo partly drawn) [Example 10, 7S-(7α,10aα)]-N-[9-(Aminocarbonyl)-3-chloro-7-(dimethylamino)-5,5a,6,6a,7,10,10a,12-octahydro-1,8,10a,11-tetrahydroxy-10,12-dioxo-2-naphthacenyl]-1-piperidineacetamide dihydrochloride] | 0.7 | 0.6 |
| CCCCCNCC(=O)Nc1c(Cl)cc2c(c1O)C(=O)C1=C(O)[C@]3(O)C(=O)C(C(N)=O)=C(O)[C@@H](N(C)C)C3CC1C2 (stereo partly drawn) [Example 6, [4S-(4α, 12aα)]-8-Chloro-4-(dimethylamino)-1,4,4a,5,5a,6,11,12a-octahydro-3,10,12,12a-tetrahydroxy-1,11-dioxo-9-[[(pentylamino)acetyl]amino]-2-naphthacenecarboxamide dihydrochloride] | 0.6 | 0.7 |
